Holding throughout (format): cell-based
The target in assay [1] is T1, PfCRT^Dd2 (Plasmodium falciparum, UniProt Q9N623, A220S/I356T/K76T/M74I/N326S/N75E/Q271E/R371I). Put plainly: [3H]CQ uptake into Xenopus oocytes, cis-inhibition by unlabelled solute. Conditions: PfCRTDd2 oocytes, background [3H]CQ accumulation subtracted, normalised to oocyte type control. A digest of the protocol:
(§1)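 Washed oocytes (ten per treatment) were exposed to label in pH 5.5 ND96 for 1.5 h at 27.5 °C. Buffer was then removed, cells rinsed in ice-cold ND96, lysed in SDS and counted.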

In assay [2] the target is T2, PfCRT^Ecu1110 (Plasmodium falciparum, UniProt Q9N623, A220S/I356L/K76T/N326D). Described as above. Conditions: for PfCRT-mediated [3H]CQ transport, cis-inhibition (% PfCRTEcu1110 control): PfCRTEcu1110 oocytes, background [3H]CQ accumulation subtracted, normalised to oocyte type control; for [3H]CQ transport (% PfCRTEcu1110 control), cis-inhibition, PfCRTEcu1110: PfCRT-mediated component (background subtracted), sheet title says normalised to PfCRTDd2 control, mean ± SEM, SEM. A digest of the protocol: as §1

In a further assay the target is PfCRT^3D7 (Plasmodium falciparum, UniProt Q8IBZ9). Put plainly: cell-based. Conditions: PfCRT3D7 oocytes, normalised to oocyte type control. A digest of the protocol: (§2)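 Transport measured in Xenopus oocytes expressing the transporters, 1.5 h at 27.5 °C in ND96 pH 5.5 unless noted. For trans-stimulation, VF-6 injected in 25 nL ND96 at pH 5.0–7.0 or Na^+-free (choline) buffer; intracellular levels based on ~400 nL oocyte volume. Ten oocytes per treatment, ≥4 experiments.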

The target of assay [3] is T1, PfCRT^Dd2. Put plainly: cell-based. Conditions: for PfCRT-mediated [3H]CQ transport, trans-stimulation (% PfCRTDd2 control): PfCRTDd2 oocytes, normalised to oocyte type control; for [3H]CQ transport (% PfCRTDd2 control), trans-stimulation, PfCRTDd2: PfCRT-mediated component (background subtracted), mean ± SEM, SEM. In outline: as §2
For assay [4], the target named is T2, PfCRT^Ecu1110. Put plainly: cell-based. Conditions: for PfCRT-mediated [3H]CQ transport, trans-stimulation (% PfCRTEcu1110 control): PfCRTEcu1110 oocytes, normalised to oocyte type control; for [3H]CQ transport (% PfCRTDd2 control), trans-stimulation, PfCRTEcu1110: PfCRT-mediated component (background subtracted), sheet title says normalised to PfCRTDd2 control, mean ± SEM, SEM. In outline: as §2

[5] abbreviates: [test solute]i = 5 mM (intracellular).
Where [6] appears, read: [test solute]i = 45 mM (intracellular; 30 mM for some solutes due to solubility).
The mark [7] stands for this setting: [test solute]i = 5 mM (injected).
[8] abbreviates: [test solute]i = 45 mM (30 mM for some solutes due to solubility).

Results on 2 substances are retold here after publication PMC7413254 (Nature Communications, 2020).

T2 sequence (Q9N623 whole entry A220S/I356L/K76T/N326D): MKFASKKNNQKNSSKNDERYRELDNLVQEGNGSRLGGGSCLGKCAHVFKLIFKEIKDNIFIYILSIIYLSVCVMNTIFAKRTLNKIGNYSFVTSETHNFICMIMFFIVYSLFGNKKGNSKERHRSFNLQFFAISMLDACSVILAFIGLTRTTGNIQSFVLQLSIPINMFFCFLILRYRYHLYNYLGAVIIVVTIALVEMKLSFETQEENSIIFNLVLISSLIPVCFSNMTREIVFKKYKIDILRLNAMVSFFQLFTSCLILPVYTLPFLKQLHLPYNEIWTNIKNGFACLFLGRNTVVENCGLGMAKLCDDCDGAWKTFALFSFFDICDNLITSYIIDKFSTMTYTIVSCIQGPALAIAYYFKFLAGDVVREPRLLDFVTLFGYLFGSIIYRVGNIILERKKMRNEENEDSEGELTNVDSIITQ
T1 sequence (Q9N623 whole entry A220S/I356T/K76T/M74I/N326S/N75E/Q271E/R371I): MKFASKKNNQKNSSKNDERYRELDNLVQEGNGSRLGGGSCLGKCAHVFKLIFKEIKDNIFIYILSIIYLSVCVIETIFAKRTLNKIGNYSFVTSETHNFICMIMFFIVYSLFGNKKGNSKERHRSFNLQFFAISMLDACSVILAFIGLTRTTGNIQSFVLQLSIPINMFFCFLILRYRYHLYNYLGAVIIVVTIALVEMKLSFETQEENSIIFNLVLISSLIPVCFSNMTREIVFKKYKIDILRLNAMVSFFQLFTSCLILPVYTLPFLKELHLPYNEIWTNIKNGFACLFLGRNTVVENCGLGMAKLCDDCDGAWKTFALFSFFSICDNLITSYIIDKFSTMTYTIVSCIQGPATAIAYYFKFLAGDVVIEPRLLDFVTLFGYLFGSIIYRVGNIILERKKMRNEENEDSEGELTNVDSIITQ
Sequence of PfCRT^3D7 (Q8IBZ9 59-398): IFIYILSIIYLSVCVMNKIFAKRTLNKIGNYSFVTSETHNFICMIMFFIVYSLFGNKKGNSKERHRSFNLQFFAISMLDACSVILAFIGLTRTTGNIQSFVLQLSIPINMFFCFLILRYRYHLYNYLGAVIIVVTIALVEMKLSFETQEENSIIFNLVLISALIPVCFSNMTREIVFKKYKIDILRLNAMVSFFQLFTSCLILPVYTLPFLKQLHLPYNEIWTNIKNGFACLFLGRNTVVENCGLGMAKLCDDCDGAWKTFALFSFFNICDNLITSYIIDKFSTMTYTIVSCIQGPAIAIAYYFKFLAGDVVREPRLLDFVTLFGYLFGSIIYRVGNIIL

As for FPHFDLS [FS-7], the results for the “PfCRT-mediated [3H]CQ transport, cis-inhibition (% PfCRTDd2 control)” value on PfCRT^Dd2 [1] ([test solute] = 0.5 mM), on PfCRT^Dd2 [1] ([test solute] = 1 mM) and at PfCRT^Dd2 [1] ([test solute] = 2 mM) were 30 ± 3.7 % PfCRTDd2 control, 19 ± 0.7 % PfCRTDd2 control and 11 ± 0.7 % PfCRTDd2 control, respectively. Further, the “PfCRT-mediated [3H]CQ transport, cis-inhibition (% PfCRTEcu1110 control)” value was determined as 39 ± 2.5 % PfCRTEcu1110 control on PfCRT^Ecu1110 [2] ([test solute] = 0.5 mM), 31 ± 1.7 % PfCRTEcu1110 control at PfCRT^Ecu1110 [2] ([test solute] = 1 mM) and 17 ± 0.8 % PfCRTEcu1110 control at PfCRT^Ecu1110 [2] ([test solute] = 2 mM). The “[3H]CQ transport (% PfCRTEcu1110 control), cis-inhibition, PfCRTEcu1110” value at PfCRT^Ecu1110 [2] ([test solute] = 0.5 mM) is given as 12 ± 0.4 % PfCRTEcu1110 control; at PfCRT^Ecu1110 [2] ([test solute] = 1 mM), 10 ± 0.2 % PfCRTEcu1110 control; on PfCRT^Ecu1110 [2] ([test solute] = 2 mM), 5.0 ± 0.04 % PfCRTEcu1110 control. The “PfCRT-mediated [3H]CQ transport, trans-stimulation (% PfCRT3D7 control)” value at PfCRT^3D7 (setting [5]) came out at 96 ± 4.6 % PfCRT3D7 control; on PfCRT^3D7 (setting [6]) it was 99 ± 2.7 % PfCRT3D7 control. For the same substance, the “PfCRT-mediated [3H]CQ transport, trans-stimulation (% PfCRTDd2 control)” value on PfCRT^Dd2 [3] (setting [5]) stood at 95 ± 4.2 % PfCRTDd2 control; at PfCRT^Dd2 [3] (setting [6]), 98 ± 4.1 % PfCRTDd2 control. The “[3H]CQ transport (% PfCRTDd2 control), trans-stimulation, PfCRTDd2” value stood at 95 ± 4.2 % PfCRTDd2 control at PfCRT^Dd2 [3] (setting [7]) and 98 ± 4.1 % PfCRTDd2 control on PfCRT^Dd2 [3] (setting [8]). Further, the “PfCRT-mediated [3H]CQ transport, trans-stimulation (% PfCRTEcu1110 control)” value on PfCRT^Ecu1110 [4] (setting [5]) is given as 99 ± 3.6 % PfCRTEcu1110 control; on PfCRT^Ecu1110 [4] (setting [6]) it was 98 ± 4.3 % PfCRTEcu1110 control. The results for the “[3H]CQ transport (% PfCRTDd2 control), trans-stimulation, PfCRTEcu1110” value on PfCRT^Ecu1110 [4] (setting [7]) and at PfCRT^Ecu1110 [4] (setting [8]) were 30 ± 1.3 % PfCRTEcu1110 control and 30 ± 1.4 % PfCRTEcu1110 control, respectively.
Consider HVDDMP [HP-6], for which the figures for the “PfCRT-mediated [3H]CQ transport, cis-inhibition (% PfCRTDd2 control)” value on PfCRT^Dd2 [1] ([test solute] = 0.5 mM), on PfCRT^Dd2 [1] ([test solute] = 1 mM) and at PfCRT^Dd2 [1] ([test solute] = 2 mM) were 22 ± 2.9 % PfCRTDd2 control, 16 ± 1.2 % PfCRTDd2 control and 4.1 ± 0.1 % PfCRTDd2 control, respectively. Further, the entries for the “PfCRT-mediated [3H]CQ transport, cis-inhibition (% PfCRTEcu1110 control)” value on PfCRT^Ecu1110 [2] ([test solute] = 0.5 mM), on PfCRT^Ecu1110 [2] ([test solute] = 1 mM) and at PfCRT^Ecu1110 [2] ([test solute] = 2 mM) were 40 ± 1.0 % PfCRTEcu1110 control, 31 ± 1.6 % PfCRTEcu1110 control and 21 ± 1.6 % PfCRTEcu1110 control, respectively. Further, the “[3H]CQ transport (% PfCRTEcu1110 control), cis-inhibition, PfCRTEcu1110” value on PfCRT^Ecu1110 [2] ([test solute] = 2 mM) is on record as 7.0 ± 0.02 % PfCRTEcu1110 control. Moreover, the figures for the “PfCRT-mediated [3H]CQ transport, trans-stimulation (% PfCRT3D7 control)” value at PfCRT^3D7 (setting [5]) and at PfCRT^3D7 (setting [6]) were 142 ± 3.3 % PfCRT3D7 control and 190 ± 4.3 % PfCRT3D7 control, respectively. Further, the “PfCRT-mediated [3H]CQ transport, trans-stimulation (% PfCRTDd2 control)” value on PfCRT^Dd2 [3] (setting [5]) came to 103 ± 1.1 % PfCRTDd2 control; at PfCRT^Dd2 [3] (setting [6]), 112 ± 1.1 % PfCRTDd2 control. For the same substance, the results for the “[3H]CQ transport (% PfCRTDd2 control), trans-stimulation, PfCRTDd2” value at PfCRT^Dd2 [3] (setting [7]) and at PfCRT^Dd2 [3] (setting [8]) were 103 ± 1.1 % PfCRTDd2 control and 112 ± 1.1 % PfCRTDd2 control, respectively. Further, the “PfCRT-mediated [3H]CQ transport, trans-stimulation (% PfCRTEcu1110 control)” value at PfCRT^Ecu1110 [4] (setting [5]) is given as 122 ± 4.2 % PfCRTEcu1110 control; on PfCRT^Ecu1110 [4] (setting [6]), 139 ± 3.4 % PfCRTEcu1110 control. Further, the figures for the “[3H]CQ transport (% PfCRTDd2 control), trans-stimulation, PfCRTEcu1110” value on PfCRT^Ecu1110 [4] (setting [7]) and on PfCRT^Ecu1110 [4] (setting [8]) were 36 ± 1.3 % PfCRTEcu1110 control and 42 ± 1.3 % PfCRTEcu1110 control, respectively.
